Source: US6107316A, “Method for treating protozoal infections” (priority 1998, dated 2000)
Values after ≈ are worked out from the molar mass of the structure shown. Read-outs that look alike come from different tables or passages of the source. Values belong to the molecule of their own block, whether it stands above or below them.

Legend:
Tetrahymena pyriformis = test: in vitro growth inhibitory activity against the ciliate Tetrahymena pyriformis; assay type: cell-based, Tetrahymena pyriformis (ATCC strain 30005); settings: read-out: EC50 Tetrahymena pyriformis
Method: Compounds were evaluated for in vitro growth inhibitory activity against the ciliate Tetrahymena pyriformis, which was used as an indicator organism for the Apicomplexia since by several criteria the ciliates and Apicomplexa are closely related (Edlind T. D. et al., Mol. Phylogenet. Evol. vol. 5, pp. 359-367, 1996). T. pyriformis (ATCC strain 30005) was grown in 1 ml ATCC medium 357 at 25° C. in 4 ml polyallomer culture tubes without shaking. Compounds were dissolved in dimethylsufoxide (DMSO) and added to the cultures (containing 3,000 cells/ml) such that the final DMSO concentration was 0.1-0.3%. […] Parasitol. vol. 84, pp. 355-370, 1996) and Cryptosporidium parvum (Arrowood et al., FEMS Microbial. Lett., vol. 136, pp. 245-249, 1996) were tested for comparison.

Giardia lamblia = test: in vitro growth inhibitory activity against Giardia lamblia; assay type: cell-based; settings: Giardia duodenalis; concentration required to inhibit growth by 50%
Method: 35, pp. 2198-2202 (1991). EC50 values for test compounds, expressed in parts per million (ppm), were calculated from dose response curves and are presented in Table 4. As used herein, the terminology "EC50" means the concentration of test compound required to inhibit growth by 50% are compared to a control lacking the test compound. Metronidazole was included as a standard in the tests for comparative purposes.

Leishmania major = test: in vitro growth inhibitory activity against L. major promastigotes; assay type: cell-based
From the text: 35, pp. 2198-2202 (1991).

Toxoplasma gondii [1] = test: growth inhibition of T. gondii in L929 host cells ([3H]-uracil incorporation); assay type: cell-based; settings: L929 host cells; for inhibition at 0.5 µg/mL / inhibition at 5 µg/mL: Toxoplasma gondii, read-out: % Inhibition
Method: (§1) Compounds were tested for it vitro growth inhibitory activity against Toxoplasma gondii replication in L929 (L929-ATCC CCL 1, mouse connective tissue) or HFF (human foreskin fibroblast) host cells using the [^3 H]-uracil incorporation technique as follows. Host cells were grown in 96-well flat-bottom microtiter plates at 37° C in a 5% carbon dioxide environment in modified Eagle's medium containing penicillin, streptomycin and 10% fetal equine serum. Wells containing a homogeneous confluent monolayer of host cells were infected with T. gondii tachyzoites at a ratio of 3 parasites per cell (approximately 6×10^4 tachyzoites per well containing 100 μl of medium). […] Two hours post infection, the cultures were washed to remove free parasites and the various dilutions of test compound were added. Cells were subsequently collected at 24, 48 and 72 hours. Four hours prior to each harvesting 50 Al of [^3 H]-uracil (1 μCi) was added. Cells were collected using a cell harvester and incorporated radioactivity was measured using a scintillation counter. […]

Cryptosporidium parvum = test: growth inhibitory activity against C. parvum in host MDBKF5D2 cells (immunofluorescence); assay type: cell-based; settings: for % Inhibition: 48 hours
Method: (§2) Compounds were tested for in vitro growth inhibitory activity against C. parvum grown in host MDBKF5D2 cells and for toxicity towards the host cells as follows. […] To test for toxicity towards the host cells, the media containing test compound (200 μl) were introduced into two wells of a 96 well microtiter plate containing confluent MDBKF5D2 cell monolayers and two wells without monolayers, and incubated at 37° C. in an 8% carbon dioxide environment. After 48 hours, the tetrazolium salt MTS (Owen's solution) and phenazine methosulfate were added to each well at concentrations of 333 μg/ml and 25 μM, respectively. The plate was returned to the incubator in the dark to develop for 2 hours, then 100 μl of each supernatant was transferred to a new microtiter plate and read spectrophotometrically in a plate reader at a wavelength of 490 nm. Percent toxicity was calculated by subtracting the mean optical density (OD) of the drug supernatants from the OD of medium control supernatants (no drug), dividing by the OD of the medium control, and multiplying by 100. To test for growth inhibitory activity against C. parvum, 3×10^4 oocysts per well were incubated in mentioned concentrations of each drug at 37° C. (8% CO2) on confluent MDBKF5D2 cell monolayers in 96 well microtiter plates. After 48 hours, the level of infection in each well was determined by means of an immunofluorescence assay. Percent inhibition of growth was calculated by subtracting the mean parasite count in the wells containing test compound from the mean parasite count in the medium control wells (no test compound), dividing by the mean parasite count in the medium control wells, and multiplying by 100. Paromomycin was included in the test as a standard.

MDBKF5D2 cells = test: toxicity towards MDBKF5D2 host cells (MTS); settings: 48 hours, 2880 min
Method: as §2

Toxoplasma gondii [2] = test: growth inhibition of T. gondii in HFF host cells ([3H]-uracil incorporation); assay type: cell-based; settings: HFF host cells; for inhibition at 0.5 µg/mL / inhibition at 5 µg/mL: Toxoplasma gondii, read-out: % Inhibition
Method: as §1

[3] = cytotoxicity towards L929 host cells (Cell Titer 96); settings: mouse, % Inhibition of host cell growth (values in parenthesis)
Method: (§3) Cytotoxicity of the test compounds towards host cells was determined using the Cell Titer 96™ it (Promega Corporation, Madison, Wis.) as follows. Cells were seeded at a concentration of 5×10^3 cells per well containing 100 μl of medium in 96-well flat-bottom microtiter plates and incubated at 37° C. in a 5% carbon dioxide environment for 4 hours. Dilutions of the test compounds prepared as described above were then added, and incubation continued for 24, 48 or 72 hours. Four hours before each of these time points the growth medium containing test compound was replaced with 100 μl of fresh medium followed by addition of 16 μl of the kit dye solution. After incubation at 37° C. for another 4 hours, 100 μl of the kit solubilization/stop solution was added to each well, the contents of the wells were mixed and the plates kept 1 hour at room temperature. The plates were then read spectrophotometrically in a plate reader at a wavelength of 570 nm. […] Atovaquone was included in the test as a standard.

[4] = toxicity towards MDBKF5D2 host cells (MTS); settings: bovine, mdbkf5d2 cells, Cytotoxicity (percent toxicity)
Method: as §2

[5] = cytotoxicity towards HFF host cells (Cell Titer 96); settings: human, % Inhibition of host cell growth (values in parenthesis)
Method: as §3

Compound: CCC(C)(NC(=O)c1cc(Cl)cc(Cl)c1)C(=O)CN=C=S (stereo not shown) [Compound 8]
EC50 (Tetrahymena pyriformis; 24 h): 0.07 µg/mL (≈ 0.203 µM)
EC50 (Giardia lamblia): 0.2 µg/mL (≈ 0.579 µM)
EC50 (Leishmania major): 0.7 µg/mL (≈ 2.03 µM)

Compound: CCC(C)(NC(=O)c1cc(Cl)cc(Cl)c1)C(=O)CCl (stereo not shown) [Compound 13]
% Inhibition (Toxoplasma gondii [1]; 0.5 μg/ml, 24 hours): 11.6%
% Inhibition (Toxoplasma gondii [1]; 0.5 μg/ml, 48 hours): 33.2%
% Inhibition (Toxoplasma gondii [1]; 0.5 μg/ml, 72 hours): 0%
% Inhibition (Toxoplasma gondii [1]; 5.0 μg/ml, 24 hours): 11.4%
% Inhibition (Toxoplasma gondii [1]; 5.0 μg/ml, 48 hours): 83.9%
% Inhibition (Toxoplasma gondii [1]; 5.0 μg/ml, 72 hours): 88.5%
% Inhibition (Cryptosporidium parvum; 0.1 μM): 9.9%
% Inhibition (Cryptosporidium parvum; 1.0 μM): 12.5%
% Inhibition (Cryptosporidium parvum; 10 μM): 15.7%
inhibition at 100 µM (Cryptosporidium parvum; Cryptosporidium parvum, 48 h): 87.5%
Cytotoxicity (percent toxicity) (MDBKF5D2 cells; 0.1 μM): 0%
Cytotoxicity (percent toxicity) (MDBKF5D2 cells; 1.0 μM): 2.4%
Cytotoxicity (percent toxicity) (MDBKF5D2 cells; 10 μM): 4.3%
Cytotoxicity (percent toxicity) (MDBKF5D2 cells; 100 μM): 54.3%
% Inhibition (Toxoplasma gondii [2]; 0.5 μg/ml, 24 hours): 72.3%
% Inhibition (Toxoplasma gondii [2]; 0.5 μg/ml, 48 hours): 28.1%
% Inhibition (Toxoplasma gondii [2]; 0.5 μg/ml, 72 hours): 0%
% Inhibition (Toxoplasma gondii [2]; 5.0 μg/ml, 24 hours): 93.0%
% Inhibition (Toxoplasma gondii [2]; 5.0 μg/ml, 48 hours): 98.2%
% Inhibition (Toxoplasma gondii [2]; 5.0 μg/ml, 72 hours): 97.8%

Compound: CCC(C)(NC(=O)c1cc(Br)c(N)c(Br)c1)C(=O)CCl (stereo not shown) [Compound 14]
inhibition at 0.5 µg/mL (Toxoplasma gondii [1]; L929, 24 h, 0.5 μg/ml, 24 hours): 29.3%
inhibition at 5 µg/mL (Toxoplasma gondii [1]; L929, 24 h, 5.0 μg/ml, 24 hours): 6.9%
inhibition at 0.5 µg/mL (Toxoplasma gondii [1]; L929, 48 h, 0.5 μg/ml, 48 hours): 79.8%
inhibition at 5 µg/mL (Toxoplasma gondii [1]; L929, 48 h, 5.0 μg/ml, 48 hours): 61.2%
inhibition at 0.5 µg/mL (Toxoplasma gondii [1]; L929, 72 h, 0.5 μg/ml, 72 hours): 84.9%
inhibition at 5 µg/mL (Toxoplasma gondii [1]; L929, 72 h, 5.0 μg/ml, 72 hours): 79.7%
inhibition at 0.1 µM (Cryptosporidium parvum; Cryptosporidium parvum, 48 h, 0.1 μM): 2.1%
inhibition at 1 µM (Cryptosporidium parvum; Cryptosporidium parvum, 48 h, 1.0 μM): 11.3%
inhibition at 10 µM (Cryptosporidium parvum; Cryptosporidium parvum, 48 h, 10 μM): 35.4%
inhibition at 100 µM (Cryptosporidium parvum; Cryptosporidium parvum, 48 h): 86.7%
inhibition at 24 h ([3]; L929, 0.5 μg/ml): 8.9%
inhibition at 48 h ([3]; L929, 0.5 μg/ml): 0%
inhibition at 72 h ([3]; L929, 0.5 μg/ml): 0%
inhibition at 24 h ([3]; L929, 5.0 μg/ml): 21.8%
inhibition at 48 h ([3]; L929, 5.0 μg/ml): 58.7%
inhibition at 72 h ([3]; L929, 5.0 μg/ml): 77.6%
cytotoxicity at 48 h, 0.1 µM ([4]; 0.1 μM): 21%
cytotoxicity at 48 h, 1 µM ([4]; 1.0 μM): 6.1%
cytotoxicity at 48 h, 10 µM ([4]; 10 μM): 3.9%
cytotoxicity at 48 h, 100 µM ([4]; 100 μM): 22.3%
inhibition at 24 h ([5]; 0.5 μg/ml): 4.1%
inhibition at 48 h ([5]; 0.5 μg/ml): 3.7%
inhibition at 72 h ([5]; 0.5 μg/ml): 0%
inhibition at 24 h ([5]; 5.0 μg/ml): 5.8%
inhibition at 48 h ([5]; 5.0 μg/ml): 31.8%
inhibition at 72 h ([5]; 5.0 μg/ml): 53.6%
inhibition at 0.5 µg/mL (Toxoplasma gondii [2]; 24 h, 0.5 μg/ml, 24 hours): 63.9%
inhibition at 5 µg/mL (Toxoplasma gondii [2]; 24 h, 5.0 μg/ml, 24 hours): 87.4%
inhibition at 0.5 µg/mL (Toxoplasma gondii [2]; 48 h, 0.5 μg/ml, 48 hours): 96.1%
inhibition at 5 µg/mL (Toxoplasma gondii [2]; 48 h, 5.0 μg/ml, 48 hours): 99.7%
inhibition at 0.5 µg/mL (Toxoplasma gondii [2]; 72 h, 0.5 μg/ml, 72 hours): 77.8%
inhibition at 5 µg/mL (Toxoplasma gondii [2]; 72 h, 5.0 μg/ml, 72 hours): 99.1%

EC50 (Giardia lamblia): 2 µg/mL (≈ 6.08 µM)
EC50 (Leishmania major): 7 µg/mL (≈ 21.3 µM)
Compound: CCC(C)(NC(=O)c1cc(Cl)c2ncoc2c1)C(=O)CCl (stereo not shown) [Compound 16]
EC50 (Tetrahymena pyriformis; 24 hours, 25° C.): 0.6 µg/mL (≈ 1.82 µM)
